Where “and” joins values, the source holds several entries; their conditions need not be identical. Identical values can stand only once.
System: Aspergillus niger
Test: Fungal resistance test on coated test cloth
Format: cell-based
Parameters: key to Judgment (fungal resistance): NG: Completely no fungal growth; TG: Growth on less than 10% of the surface area; SG: Growth on 10% or more and less than 30% of the surface area; MG: Growth on 30% or more and less than 60% of the surface area; HG: Growth on 60% or more of the surface area
Details: cultured 29±1° C. 7 days; for Growth rate (%) Average: average of three test cloths; for Growth rate (%): single test cloths (three per solution), 0.3 ml ethanol solution (A 1.17%, B 1.00%, C 0.300%) coated, dried 48 hours
Description: Each of betaine ester (1), betaine ester (3) and geraniol was dissolved in 99.5% ethanol to prepare solutions having the following concentrations and used as test solutions (A), (B) and (C), respectively.
Test solution (A): betaine ester (1), 1.17% in concentration
Test solution (B): betaine ester (3), 1.00% in concentration
Test solution (C): geraniol, 0.300% in concentration
(1) Preparation of test cloth
A 0.3 ml portion of each test solution or 0.3 ml of 99.5% ethanol used as a control was separately coated on a cotton-polyester mixture test cloth cut into a disc of 25 mm in diameter and then the cloth was dried at 25° C. under 30% relative humidity for 48 hours to be used as a test cloth. Three sheets of the test cloth were prepared for one test solution and used in the test.
(2) Fungal resistance test
A plate agar medium having the following composition was prepared to a thickness of 15 mm in a Petri dish of 150 mm in diameter. The medium was used by sterilizing it in advance at 120° C. for 20 minutes in an autoclave.
Pure water: 1,500 ml, glucose: 15 g, agar: 23 g, inorganic salts stock solution (NH4NO3 90 g, KH2PO4 60 g, MgSO4 7H2O, 15 g, KCl 15 g, pure water 1,000 g): 50 ml
Each test cloth was put on the above medium, and about 1 ml of a spore suspension prepared by dispersing spores of a fungus (Aspergillus niger) in sterile water (containing 0.005% sodium dioctylsulfosuccinate) was sprayed. This was cultured at 29±1° C. for 7 days to carry out comparative test of fungal resistance by inspecting growing condition of the fungus on the periphery or surface of the sample, and the results were evaluated based on the following five step criteria by observing growth condition of the fungus on the test cloth surface with the naked eye and under a microscope. That is, when the fungus is not grown on the surface of a test cloth and also, when the test cloth is peeled from the medium, the fungus is not grown on the backside but forming an inhibition zone, the result is judged as excellent in fungal resistance (NG).
Completely no fungal growth: NG (no growth)
Growth on less than 10% of the surface area: TG (trace of growth)
Growth on 10% or more and less than 30% of the surface area: SG (slight growth)
Growth on 30% or more and less than 60% of the surface area: MG (moderate growth)
Growth on 60% or more of the surface area: HG (heavy growth)

Row | Structure (SMILES) | Growth rate (%) Average | Judgment (fungal resistance) | Growth rate (%) (listed as (C)) | Growth rate (%)
1 | CC(C)=CCC/C(C)=C/CO [geraniol, reference compound] | 36% | MG (Growth on 30% or more and less than 60% of the surface area) | 35% and 32% and 40% | 
2 | CCCCCCCCCCCCCCCCCC(=O)NCCC[N+](C)(C)CC(=O)OC/C=C(\C)CCC=C(C)C.[Cl-] [betaine ester (1), N,N-dimethyl-N-geranyloxycarbonylmethyl-N-(3-(octadecanoylamino)propyl)ammonium chloride] | 0% | NG |  | 0%
3 | CCCCCCCCCCCC(=O)NCCC[N+](C)(C)CC(=O)OC/C=C(\C)CCC=C(C)C.[Cl-] [betaine ester (3), N,N-dimethyl-N-geranyloxycarbonylmethyl-N-(3-(dodecanoylamino)propyl)ammonium chloride] | 0% | NG |  | 0%

Reference: patent US6586639B2, “Functional alcohol releasing substance” (Kao Corporation, priority 1999, dated 2003)
